Results as given in patent publication US11077169B2, “Soy-derived bioactive peptides for use in compositions and methods for wound healing, tissue engineering, and regenerative medicine” (Temple University-Of The Commonwealth System of Higher …, priority 2015, dated 2021).

Test system: HaCaT epithelial cells
Test: wound closure in HaCaT cells with ethanol extracts and estrogen receptor antagonist
Assay type: cell-based, human

C[C@]12CC[C@@H]3c4ccc(O)cc4C[C@@H](CCCCCCCCC[S+]([O-])CCCC(F)(F)C(F)(F)F)[C@H]3[C@@H]1CC[C@@H]2O (some centres unmarked) [Fluvestrant]
effect on WSsoy-induced wound closure: did not affect
inhibition of SPI-induced wound closure (10 μM antagonist): significantly inhibited
